Measured values taken from US10617734B2, “STAT3 and ERK signal pathway inhibitor comprising mogrosides and analogs thereof” (BEIJING UNIVERSITY OF AGRICULTURE, priority 2014, dated 2020).

What was measured:
[1] = tested on: leukemia cells K562; assay: Cell cycle distribution, PI staining, flow cytometer; assay type: cell-based, human; details: leukemia cells K562, 10 μmol/L, 24 h
From the text: (§1) The influences of Mogroside I E1, Mogroside II A2 and mogrol on the cell cycle distribution of the histiocytic lymphoma U937 cells, the human melanoma A875 cells and the leukemia cells K562.
(§2) The cell cycle arrest achieved by drugs is an important approach to the inhibition of cancer cell proliferation.

[2] = tested on: lymphoma U937 cells; assay: Cell apoptosis, Annexin V-FITC/PI, flow cytometer; assay type: cell-based; details: 10 μmol/L, 24 h
Procedure: (§3) Lymphoma U937 cells, human melanoma A875 cells and leukemia cells K562 in logarithmic growth phase were selected, and after the respective culture with 0 and 10 μmol/L of the mogrosides and analogs thereof (i.e. Mogroside I E1, Mogroside II A2 and mogrol) for 24 h, cells were collected and washed twice with 200 μl of cold PBS, and then the cells were collected again; 100 μl of binding buffer was added for re-suspending the cells, and after the addition of 2 μl of Annexin V-FITC and well mixing, the resulting mixture was placed in dark at room temperature for 10 min, and then 5 μl of propidium iodide (PI) was added and then well mixed; the mixture was placed in dark at room temperature for 10 min, and detected by flow cytometer, and the results are shown in FIGS. 13-15.

[3] = tested on: human melanoma A875 cells; assay: Cell morphology, Hoechst 33258 staining, fluorescence microscope; assay type: cell-based; details: A875 melanoma cells, 10, 100 and 250 μmol/L, 24-hour culture
Procedure: (§4) Lymphoma U937 cells, human melanoma A875 cells and leukemia cells K562 in logarithmic growth phase were selected, and the concentrations of the cells were adjusted to 1×10^4 cells/mL, and the cells were transferred to a 6-well plate for culture, and after the 24-hour culture, drugs were added to achieve final concentrations of 0, 10, 100 and 250 μmol/L, wherein only whole medium was added to the negative control groups, while Mogroside II A2 was added to the positive control groups, after 24-hour culture, waste solution was removed, and fixing solution was added to each well for fixing for 25 min, and then the resulting mixture was washed twice, 3 min each time, and then Hoechst 33258 staining solution was added for staining in dark at room temperature for 30 min, and the cell morphology variation was observed using a fluorescence microscope.

[4] = tested on: lymphoma U937 cells; assay: as above; assay type: cell-based; details: lymphoma U937 cells, 10, 100 and 250 μmol/L, 24-hour culture
Procedure: as §4

[5] = tested on: human melanoma A875 cells; assay: Cell cycle distribution, PI staining, flow cytometer; assay type: cell-based; details: human melanoma A875 cells, 10 μmol/L, 24 h
From the text: as §1, §2

[6] = tested on: histiocytic lymphoma U937 cells; assay: as above; assay type: cell-based; details: 24 h; for proportion of cells in G0/G1 phase with the rise of the concentration: U937 cells, 0, 1, 10, 150 and 250 μmol/L; for cell cycle distribution (proportion of cells of G0/G1 phase): U937 cells, 10 μmol/L
From the text: as §1, §2

[7] = tested on: anti-apoptotic protein Bcl-2; assay: Western Blotting of Bcl-2 in U937 cells; assay type: cell-based; details: 10 μmol/L, 24 h
Procedure: (§5) The STAT3 and ERK signal pathways can regulate cyclins and apoptosis genes, and in order to verify the effects of […] and mogrol, the expression status of downstream genes of STAT3 and ERK was detected, wherein the influences of the three mogrosides and analogs thereof, i.e. Mogrol I E1, Mogrol II A2 and mogrol, on Bcl-2 and P21 proteins in the histiocytic lymphoma U937 cells, human melanoma A875 cells and leukemia cells K562 were determined, respectively.
(§6) The regulation of Bcl-2 and P21 proteins by mogrosides and analog thereof to the was detected by Western Blotting, specifically: histiocytic lymphoma U937 cells, human melanoma A875 cells and leukemia cells K562 (1×10^6 cells/well) were inoculated into a 6-well culture plate overnight, and 0 and 10 μmol/L of the mogrosides and analogs thereof were added respectively, and kept cultured for 24 h. […]
(§7) The protein concentration was measured with bovine serum albumin (BSA) as the standard. 50 μg of the total proteins were separated by polyacrylamide gel electrophoresis with 12% SDS, and electrophoretically transferred to a PVDF membrane (polyvinylidene fluoride membrane), and blocked for 1 h by 5% of skim milk (containing 0.1% of Tween 20), and then antibodies P21, Bcl-2 and β-actin were added, wherein the primary antibody was incubated at 4° C. overnight (β-actin was used as reference loading amount); the membrane was washed for 3 times with TBS-T, 5 min each time; secondary antibody marked by horseradish peroxidase (HRP) was added for incubation at room temperature for 1 h, the membrane was washed with rinse solution (TBS-T) for 3 times, 10 min each time, and then ECL was added for incubation in dark for 5 min, and subsequently, a fluorescence imaging analyzer was used for image development and scanning analysis.

[8] = tested on: cycle regulatory protein P21; assay: Western Blotting of P21 in K562 cells; assay type: cell-based, human; details: leukemia cells K562, 10 μmol/L, 24 h
Procedure: as §5, §6, §7

[9] = tested on: human melanoma A875 cells; assay: Cell apoptosis, Annexin V-FITC/PI, flow cytometer; assay type: cell-based; details: for cell apoptosis: 10 μmol/L, 24 h
Procedure: as §3, with “Mogroside” for “Lymphoma U937 cells, human melanoma A875 cells and leukemia cells K562 in logarithmic growth phase were selected, and after the respective culture with 0 and 10 μmol/L of the mogrosides and analogs thereof (i.e. Mogroside”

[10] = tested on: anti-apoptotic protein Bcl-2; assay: Western Blotting of Bcl-2 in A875 cells; assay type: cell-based; details: human melanoma A875 cells, 10 μmol/L, 24 h
Procedure: as §5, §6, §7

[11] = tested on: leukemia cells K562; assay: Cell morphology, Hoechst 33258 staining, fluorescence microscope; assay type: cell-based, human; details: leukemia cells K562, 10, 100 and 250 μmol/L, 24-hour culture
Procedure: as §4

[12] = tested on: cycle regulatory protein P21; assay: Western Blotting of P21 in A875 cells; assay type: cell-based; details: human melanoma A875 cells, 10 μmol/L, 24 h
Procedure: as §5, §6, §7

[13] = tested on: anti-apoptotic protein Bcl-2; assay: Western Blotting of Bcl-2 in K562 cells; assay type: cell-based, human; details: leukemia cells K562, 10 μmol/L, 24 h
Procedure: as §5, §6, §7

[14] = tested on: cycle regulatory protein P21; assay: Western Blotting of P21 in U937 cells; assay type: cell-based; details: 10 μmol/L, 24 h
Procedure: as §5, §6, §7

[15] = tested on: leukemia cells K562; assay: Cell apoptosis, Annexin V-FITC/PI, flow cytometer; assay type: cell-based, human; details: leukemia cells K562, 10 μmol/L, 24 h
Procedure: as §3

[16] = tested on: prostate cancer cells, renal carcinoma cells, head and neck squamous cell carcinoma cells, lung cancer cells, ovarian cancer cells, breast cancer cells …; assay: Tests of examples 3 to 8 on further cancer cells; assay type: cell-based; details: pancreatic, liver and colon cancer cells
[17] = tested on: lymphoma U937 cells, human melanoma A875 cells and leukemia cells K562; assay: Tests of examples 3 to 8 taken together; assay type: cell-based; details: Western Blotting, cell cycle, apoptosis, Hoechst, MTT

Compound | cell cycle distribution (cell cycle arrest) [1] | cell apoptosis [2] | cell morphology variation (Hoechst 33258) [3] | cell morphology variation (Hoechst 33258) [4] | cell cycle distribution (proportion of cells in the G0/G1 phase) [5] | proportion of cells in G0/G1 phase with the rise of the concentration [6] | cell cycle distribution (proportion of cells of G0/G1 phase) [6] | expression of anti-apoptotic protein Bcl-2 [7] | expression of cycle regulatory protein P21 [8] | cell apoptosis [9] | expression of anti-apoptotic protein Bcl-2 [10] | cell morphology variation (Hoechst 33258) [11] | expression of cycle regulatory protein P21 [12] | expression of anti-apoptotic protein Bcl-2 [13] | expression of cycle regulatory protein P21 [14] | cell apoptosis [15] | amount for cell apoptosis with the rise of the concentration ([9]; different concentrations (FIG. 16)) | results of the tests of examples 3 to 8 on further cancer cells [16] | results of the tests of examples 3 to 8 [17]
C[C@H](CC[C@@H](O)C(C)(C)O)[C@H]1CC[C@@]2(C)[C@H]3CC=C4[C@@H](CC[C@H](O[C@@H]5O[C@H](CO)[C@@H](O)[C@H](O)[C@H]5O)C4(C)C)[C@]3(C)C(O)C[C@]12C (some centres unmarked) [Mogroside I E1] | arrested | induce the apoptosis | identical to the results of Mogroside II A2 | identical to the results of Mogroside II A2 | G0/G1 arrest | gradually increased | G0/G1 arrest | significantly down-regulated | significantly up-regulated | induce the apoptosis | significantly down-regulated | identical to the results of Mogroside II A2 | significantly up-regulated | significantly down-regulated | significantly up-regulated | induce the apoptosis | – | – | –
C[C@H](CC[C@@H](O)C(C)(C)O)[C@H]1CC[C@@]2(C)[C@H]3CC=C4[C@@H](CC[C@H](O[C@@H]5O[C@H](CO[C@@H]6O[C@H](CO)[C@@H](O)[C@H](O)[C@H]6O)[C@@H](O)[C@H](O)[C@H]5O)C4(C)C)[C@]3(C)[C@H](O)C[C@]12C [Mogroside II A2] | arrested | induce the apoptosis | typical variation of cell apoptosis | identical to the results of the human melanoma A875 cells | G0/G1 arrest | gradually increased | G0/G1 arrest | significantly down-regulated | significantly up-regulated | induce the apoptosis | significantly down-regulated | identical to the results of the human melanoma A875 cells | significantly up-regulated | significantly down-regulated | significantly up-regulated | induce the apoptosis | the amount for cell apoptosis increases | – | –
C[C@H](CC[C@@H](O[C@@H]1O[C@H](CO[C@@H]2O[C@H](CO)[C@@H](O)[C@H](O)[C@H]2O)[C@@H](O)[C@H](O)[C@H]1O[C@@H]1O[C@H](CO)[C@@H](O)[C@H](O)[C@H]1O)C(C)(C)O)[C@H]1CC[C@@]2(C)[C@H]3CC=C4[C@H](CC[C@H](O[C@@H]5O[C@H](CO[C@@H]6O[C@H](CO)[C@@H](O)[C@H](O)[C@H]6O)[C@@H](O)[C@H](O)[C@H]5O[C@@H]5O[C@H](CO)[C@@H](O)[C@H](O)[C@H]5O)C4(C)C)[C@]3(C)[C@H](O)C[C@]12C [Mogroside VI] | – | – | – | – | – | – | – | – | – | – | – | – | – | – | – | – | – | identical to the results of the lymphoma U937 cells | identical to those of Mogrol I E1 and Mogrol II A2
C[C@H](CC[C@@H](O[C@@H]1O[C@H](CO[C@@H]2O[C@H](CO)[C@@H](O)[C@H](O)[C@H]2O)[C@@H](O)[C@H](O)[C@H]1O[C@@H]1O[C@H](CO)[C@@H](O)[C@H](O)[C@H]1O)C(C)(C)O)[C@H]1CC[C@@]2(C)[C@@H]3CC=C4[C@@H](CC[C@H](O[C@@H]5O[C@H](CO[C@@H]6O[C@H](CO)[C@@H](O)[C@H](O)[C@H]6O)[C@@H](O)[C@H](O)[C@H]5O)C4(C)C)[C@]3(C)[C@H](O)C[C@]12C [Mogroside V] | – | – | – | – | – | – | – | – | – | – | – | – | – | – | – | – | – | identical to the results of the lymphoma U937 cells | identical to those of Mogrol I E1 and Mogrol II A2
Mogrol III | – | – | – | – | – | – | – | – | – | – | – | – | – | – | – | – | – | identical to the results of the lymphoma U937 cells | identical to those of Mogrol I E1 and Mogrol II A2
Mogrol IV | – | – | – | – | – | – | – | – | – | – | – | – | – | – | – | – | – | identical to the results of the lymphoma U937 cells | identical to those of Mogrol I E1 and Mogrol II A2
